Common to all, as to format: functional
For test [1], the system named is Helicobacter pylori. The test can be described thus: Antibacterial activity against Helicobacter pylori clinical isolates harboring mutation in gyrA gene by agar dilution method. On the technique in general: In agar dilution, organisms are placed on agar that contains the substance at set levels.
Test [2] deals with Helicobacter pylori. The test is described as follows: Antibacterial activity against Helicobacter pylori clinical isolates harboring gyrA Asn87 mutant gene by agar dilution method.
Test [3] relates to Helicobacter pylori. The test can be described thus: Antibacterial activity against Helicobacter pylori clinical isolates harboring gyrA Asp91 mutant gene by agar dilution method.
Test [4] has as its system Helicobacter pylori. The test can be described thus: Antibacterial activity against Helicobacter pylori clinical isolates harboring gyrA gene by agar dilution method.

≈ marks a conversion by molar mass, not a printed value. Bounds are passed on as bounds.

As a reminder, the MIC is the lowest concentration found to suppress growth. Lower therefore signals greater potency. In general, MIC50 refers to the lowest concentration that inhibits either 50% of growth or 50% of the strains tested, depending on the study. The low end stands for greater potency, the high end for weaker potency. Broadly, the MIC90 is an inhibitory concentration at the 90% level, which refers to growth in some studies and to a panel of isolates in others. Low values mean higher susceptibility, high ones lower susceptibility. Regarding `C[C@H]1NCc2cc(-c3ccc4c(=O)c(C(=O)O)cn(C5CC5)c4c3OC(F)F)ccc21` [GARENOXACIN], the MIC in test [1] was ≤ 0.015 µg/mL. Besides, the MIC50 in test [2] worked out at 0.5 µg/mL (≈ 1.17 µM); in test [3] it was 0.5 µg/mL (≈ 1.17 µM); in test [4], 0.03 µg/mL (≈ 0.0704 µM). Besides, the MIC90 was 1 µg/mL (≈ 2.35 µM) in test [2], 1 µg/mL (≈ 2.35 µM) in test [3] and 0.06 µg/mL (≈ 0.141 µM) in test [4].
In test [1], `C[C@H]1COc2c(N3CCN(C)CC3)c(F)cc3c(=O)c(C(=O)O)cn1c23.C[C@H]1COc2c(N3CCN(C)CC3)c(F)cc3c(=O)c(C(=O)O)cn1c23.O` [LEVOFLOXACIN] came in with an MIC of 0.12 µg/mL. Moreover, the MIC50 was found to be 8 µg/mL in test [2], 4 µg/mL in test [3] and 0.25 µg/mL in test [4]. The MIC90 in test [2] was found to be 16 µg/mL; in test [3], 8 µg/mL; in test [4], 0.25 µg/mL.
In the case of `N[C@@H]1CN(c2c(F)cc3c(=O)c(C(=O)O)cn([C@@H]4C[C@@H]4F)c3c2Cl)CC12CC2` [SITAFLOXACIN ANHYDROUS], the MIC in test [1] was ≤ 0.015 µg/mL. Besides, the MIC50 is 0.25 µg/mL (≈ 0.61 µM) in test [2], 0.12 µg/mL (≈ 0.293 µM) in test [3] and 0.03 µg/mL (≈ 0.0732 µM) in test [4]. The results for the MIC90 in test [2], in test [3] and in test [4] were 0.5 µg/mL (≈ 1.22 µM), 0.25 µg/mL (≈ 0.61 µM) and 0.03 µg/mL (≈ 0.0732 µM), respectively.

The values above are taken from ChEMBL document CHEMBL1649495, “Sitafloxacin activity against Helicobacter pylori isolates, including those with gyrA mutations” (2009).
